{"source": "patent US11904025B2", "about": "“Cyclophanes for live-cell imaging” (Northwestern University, priority 2018, dated 2024)", "key": {"[1]": {"test_system": "RAW 264.7 cells", "test": "MTT assay, cell viability after 24 h incubation", "conditions": "for cell viability: RAW 264.7 cells, 100 μM loading concentration, 24 h incubation", "protocol": "Cell culture: Murine macrophages (RAW 264.7 cells) that were obtained from the American Type Culture Collection (ATCC, Rockville, MD, USA) were utilized for cell culture experiments.\nAfter 24 h incubation, each well was added with MTT (5 mg/ml in PBS, 10 μL) and then incubated for 4 h. The media from each well was pipetted out, formazan crystals deposited on the plate were dissolved in 200 μL of dimethyl sulfoxide and the absorbance of each well was measured using a microplate reader at 560 nm.\nAll the samples were analyzed in quadruplicates. The percentage cell viability was then calculated using the formula: % cell viability=(OD of treated sample/OD of the untreated sample)*100."}, "[2]": {"test": "Absolute fluorescence quantum yield", "type": "physicochemical", "conditions": "in H2O", "method": "(§1) UV/Vis Absorption spectra were recorded using a UV-3600 Shimadzu spectrophotometer. Steady-state emission spectra were acquired using HORIBA Nanolog spectrofluorimeter equipped with an integrating sphere for absolute photoluminescence quantum yield determination and time-correlated single-photon counting (TCSPC) module for emission decays of 4·2Cl in H2O. The time-resolved fluorescence (TRF) measurement of 6·4Cl in H2O was carried out with a streak camera system (Hamamatsu C4334 Streakscope)."}, "[3]": {"test": "Solubility", "conditions": "H2O"}, "[4]": {"test_system": "RAW 264.7 macrophages", "test": "Live cell confocal microscopy", "type": "cell-based, Murine", "conditions": "for fluorescence inside cells after incubation: RAW 264.7 cells, 4 h incubation (6·4Cl 20 μM in PBS); for photobleaching inside cells under imaging conditions: blue laser excitation", "method": "RAW 264.7 macrophages (1×10^5 cells/mL, 475 μL) were plated in each well of a 4 well p-slide (ibidi cell focus) and cultured overnight. […] After incubation, cells were washed with phenol free DMEM and stained with LysoTracker green (lysosome stain) or SYTO nuclei (nuclear stain) at 1:10,000 dilutions. Controls used were cells added with only stains, cells only and cells with materials only. Plated cells were imaged within a humidified chamber using a 100× oil-immersion objective on an SP5 Leica Confocal Microscope using HyD detectors and lasers: 405 nm diode laser for material, 561 nm HeNe laser for Lysotracker green, and 633 nm HeNe laser for SYTO 61."}, "[5]": {"test_system": "RAW 264.7 macrophages", "test": "Phototoxicity studies (irradiation, then Calcein AM viability)", "type": "cell-based, Murine", "conditions": "RAW 264.7 cells, different concentrations, light 410 nm, 25 mW, 15 min", "method": "After 24 h incubation, wells were washed with PBS, added with 100 μL of DMEM and immediately irradiated with visible light using Max-303 Xenon Light Source (410 nm, Asahi Spectra) at a light intensity of […] for 15 min. Following irradiation cells were incubated overnight and viability was measured using Calcein AM as described above."}, "[6]": {"test": "UV light photobleaching / photostability in solution", "type": "physicochemical", "method": "Samples were irradiated with a 18 W LED UV flashlight (395 nm, Hinmay super bright LED). They were immersed in a 23±1° C. water bath during irradiation periods. (FIG. 5A-5B)"}, "[7]": {"test": "Fluorescence at different pH and in serum", "type": "physicochemical", "method": "as §1"}, "[8]": {"test_system": "RAW 264.7 macrophages", "test": "Calcein AM cell viability assay", "type": "cell-based, Murine", "conditions": "RAW 264.7 cells, 24 h incubation, 1.56-100 μM", "method": "After 24 h of incubation, cells were washed twice with PBS, added with Calcein AM (1 μM, 100 μL in PBS) to each well and then incubated for 1 h in the dark. […] The measured fluorescence intensity (FI) is proportional to the number of viable cells."}}, "note": "“Also recorded” adds a separate entry of the source."}
{"smiles": "C[n+]1ccc(-c2ccc(-c3cc[n+](C)cc3)cc2)cc1", "note": "[2·2Cl, Me2ExBIPY·2Cl]", "values": [{"measurement": "cell viability", "setting": "[1]", "value": 68, "unit": "%"}]}
{"smiles": "C[n+]1ccc(-c2nc3sc(-c4cc[n+](C)cc4)nc3s2)cc1", "note": "[4·2Cl, 4,4′-(Thiazolo[5,4-d]thiazole-2,5-diyl)bis(1-methylpyridinium), reference compound]", "values": [{"measurement": "cell viability", "setting": "[1]", "value": "~75", "unit": "%"}, {"measurement": "fluorescence quantum yield ΦF", "setting": "[2]", "value": 0.95}, {"measurement": "water solubility", "setting": "[3]", "value": "Water soluble"}, {"measurement": "fluorescence inside cells after incubation", "setting": "[4]", "value": "only a little fluorescence"}, {"measurement": "fluorescence inside cells after incubation", "setting": "[4]; listed as Me2TzBIPY·2Cl", "value": "very little fluorescence"}, {"measurement": "photobleaching inside cells under imaging conditions", "setting": "[4]; RAW 264.7 macrophages", "value": "quenched completely"}, {"measurement": "time until fluorescence inside the cells is quenched", "setting": "[4]; laser irradiation under imaging conditions", "value": "≤ 3", "unit": "s"}]}
{"smiles": "c1cc2ccc1C[n+]1ccc(cc1)-c1ccc(cc1)-c1cc[n+](cc1)Cc1ccc(cc1)C[n+]1ccc(cc1)-c1nc3sc(nc3s1)-c1cc[n+](cc1)C2", "note": "[6·4Cl, ExTz·4Cl]", "values": [{"measurement": "phototoxicity", "setting": "[5]", "value": "no phototoxicity"}, {"measurement": "cytotoxicity (in words)", "setting": "[1]; RAW 264.7 macrophages, loading concentration as high as 100 μM", "value": "non-cytotoxic; also recorded: less cytotoxic"}, {"measurement": "photostability in H2O", "setting": "[6]; H2O, several months under natural daylight", "value": "extremely photostable"}, {"measurement": "loss of absorbance intensity on UV irradiation (photobleaching)", "setting": "[6]; UV flashlight 18 W, 395 nm, 60 min", "value": "a little loss of absorbance intensity"}, {"measurement": "fluorescence in serum compared with water", "setting": "[7]; 10% Fetal bovine serum", "value": "slightly lower fluorescence intensity"}, {"measurement": "change of fluorescence characteristics with pH", "setting": "[7]; pH=1 to 7", "value": "without any change"}, {"measurement": "fluorescence quantum yield ΦF", "setting": "[2]", "value": 1.00}, {"measurement": "fluorescence quantum yield ΦF", "setting": "[2]; listed as 6^4+", "value": "unity"}, {"measurement": "water solubility", "setting": "[3]", "value": "highly water-soluble"}, {"measurement": "fluorescence inside cells after incubation", "setting": "[4]", "value": "brilliant blue emission"}, {"measurement": "photobleaching inside cells under imaging conditions", "setting": "[4]; RAW 264.7 macrophages", "value": "without any hint of photobleaching"}, {"measurement": "cellular uptake", "setting": "[4]; RAW 264.7 macrophages, confocal microscopy, listed as 6^4+", "value": "efficiently taken up"}, {"measurement": "fluorescence brightness inside the cells relative to reference 4^2+", "setting": "[4]; live cells", "value": "six times brighter"}, {"measurement": "cellular localization", "setting": "[4]; living macrophages, co-incubation with LysoTracker green", "value": "enters the lysosomes"}, {"measurement": "cell viability by Calcein AM versus MTT result", "setting": "[8]", "value": "confirmed"}]}
{"smiles": "c1cc2ccc1C[n+]1ccc(cc1)-c1cc[n+](cc1)Cc1ccc(cc1)C[n+]1ccc(cc1)-c1cc[n+](cc1)C2", "note": "[BlueBox, BlueBox·4Cl]", "values": [{"measurement": "cell viability", "setting": "[1]", "value": "over 96%"}]}
{"smiles": "C[n+]1ccc(-c2cc[n+](C)cc2)cc1", "note": "[paraquat, dimethyl viologen]", "values": [{"measurement": "cell viability", "setting": "[1]", "value": "~63", "unit": "%"}]}
